One data set in a line: Solubility. The class given is physicochemical.
Data set [1] can be described thus: Stability compared with DC-88A. The class given is physicochemical. To be noted: relative to known compound DC-88A.
A short description of the next data set: Acute toxicity (LD50). Conditions: mouse, in vivo; intravenous, mice.
Data set [2] has as its system Lymphocytic leukemia P-388 tumor cells. In words: Therapeutic effect upon lymphocytic leukemia P-388 tumor. The class given is in vivo, CDF1 male mice. Conditions: 24 hours after transplantation. The procedure: Lymphocytic leukemia P-388 tumor cells (1×10^6 cells) were transplanted intraperitoneally into each of five CDF1 male mice weighing about 22 grams. Twenty-four hours after transplantation, 0.2 ml of a PBS (phosphate-buffered saline) solution of DC 113 was intraperitoneally administered to each mouse. For comparison, 0.2 ml of a PBS solution of mitomycin C was intraperitoneally administered to each of five mice 24 hours after transplantation. The life-prolonging effect of DC 113 thus established is shown below in Table 2 in terms of the T/C ratio [T mean number of days of survival after transplantation in the DC 113 group; C=mean number of days of survival after transplantation in the control group (intraperitoneally given 0.2 ml of PBS)].

Data set [3] deals with Staphylococcus aureus ATCC 6538P. Nature of the data set: Antimicrobial activity, MIC by agar dilution method (pH 7.0). The class given is cell-based. Conditions: ATCC6538P, read-out: Minimum inhibitory concentration (MIC). The procedure:
(§1) Minimum inhibitory concentrations (MIC) against various bacteria were determined by the agar dilution method (pH 7.0).
Background: In agar dilution, organisms are placed on agar that contains the substance at set levels.

For another data set, the system named is Escherichia coli ATCC 26. Described as above. The class given is cell-based. To be noted: ATCC26, read-out: Minimum inhibitory concentration (MIC). The procedure: as §1
In data set [4] the test system is Bacillus subtilis No. 10707. The description is as above. Conditions: read-out: Minimum inhibitory concentration (MIC). The class given is cell-based. The method, then: as §1
Data set [5] deals with Klebsiella pneumoniae ATCC 10031. Described as above. The class given is cell-based. Conditions: ATCC10031, read-out: Minimum inhibitory concentration (MIC). The procedure: as §1
Data set [6] has as its system Salmonella typhosa ATCC 9992. The description is as above. The class given is cell-based. To be noted: Salmonella enterica, read-out: Minimum inhibitory concentration (MIC). The procedure:
as §1

In brackets after ≈: the same amount, converted by molar mass.

Turning to `COC(=O)c1cc2c([nH]1)C(=O)C=C1N(C(=O)c3cc4cc(OC)c(OC)c(OC)c4[nH]3)CC3CC123` (stereo not drawn) [DC 113], the Solubility result in “Solubility” (in chloroform, DMSO, methanol, ethyl acetate and acetone) was “Soluble”; in “Solubility” (in water and n-hexane), “sparingly soluble”. Further, the Stability entry in data set [1] is recorded as “more stable than the known compound DC-88A”. Also, the LD50 in the data set “Acute toxicity (LD50)” amounted to 0.14 mg/kg. The “Life-prolonging effect (T/C)” value in [2] (0.0063 mg/kg i.p.) stood at 130; in data set [2] (0.013 mg/kg i.p.), 110. Further, the MIC turned out to be 0.0013 µg/mL (≈ 0.00272 µM) in [3]; 0.064 µg/mL (≈ 0.134 µM) in the data set on Escherichia coli ATCC 26; 0.00065 µg/mL (≈ 0.00136 µM) in data set [4]; 0.021 µg/mL (≈ 0.044 µM) in data set [5]; 0.1 µg/mL (≈ 0.209 µM) in data set [6].
With `CO[C@@]12[C@H](COC(N)=O)C3=C(C(=O)C(C)=C(N)C3=O)N1C[C@@H]1N[C@@H]12` [Mitomycin C, mitomycin C, reference compound], in data set [2] (6 mg/kg i.p.), the “Life-prolonging effect (T/C)” value is on record as 151.

One may read the LD50 as the dose expected to kill half of the subjects tested. A high value points to a less toxic substance.

The record behind these values is US5101038A, “Novel substance DC 113 and production thereof” (priority 1988, dated 1992).
